Laboratory results taken from patent US4183935A, “Bispidine derivatives, their preparation, and drugs containing same” (priority 1977, dated 1980).
Where a name gives a salt, the structure may show the parent alone. Read-outs that look alike come from different tables or passages of the source.

How the values were obtained:
Type in all cases: in vivo, rats (Sprague Dawley)
[1] = in vivo; settings: in vivo; rat, oral; dose at which the maximum effect is achieved; read-out: Maximum effect: Dose (maximum tolerated dose)
Description: (§1) To determine their anti-arrhythmic activity, the substances were administered orally to rats (Sprague Dawley, weight 200-250 g) 45 minutes before starting a thiobutabarbital narcosis (100 mg/kg administered intraperitoneally). Aconitine was used to produce arrhythmias, and was infused intravenously 60 minutes after administration of the active substance (dosage rate 0.005 mg/kg per minute). In the untreated animals, arrhythmias manifest themselves after an average of 3.32 minutes, and their occurrence can be delayed by anti-arrhythmic agents, the delay being dependent on the dose. The ED50% is the does which increases by 50% the duration of infusion up to the occurrence of arrhythmias. R.E. is the relative effect, based on quinidine.ident.1.00. The maximum effect is that achieved by administering the maximum tolerated dose. .increment.% indicates the percentage by which the duration of the aconitine infusion can be increased. R.M.E. is the relative maximum effectiveness, based on quinidine.ident.1.00. The dose producing a toxic effect indicates the amount (in mg/kg) at which the first toxic symptoms such as cyanosis or changes in ECG occur. Q is the quotient of the toxic dose and the ED50%.

[2] = system: arrhythmias produced by aconitine; assay: animal or person; settings: for ED50: Rattus norvegicus, po, read-out: Effective dose ED50% (dose which increases by 50% the duration of infusion up to the occurrence of arrhythmias); for R.E. (relative effect, based on quinidine = 1.00): from ED50%; for R.M.E. (relative maximum effectiveness, based on quinidine = 1.00): from maximum effect; for Maximum effect: Δ% (percentage by which the duration of the aconitine infusion can be increased): rat, oral, at the maximum tolerated dose
Description: as §1

[3] = toxic effect: dose at which first toxic symptoms such as cyanosis or changes in ECG occur; settings: for Toxic effect: Dose (dose producing a toxic effect): first toxic symptoms such as cyanosis or changes in ECG; for selectivity ratio: rat, in vivo, po
Description: as §1

[4] = toxic dose / ED50%, read-out: Q (quotient of the toxic dose and the ED50%)

FC(F)(F)c1cccc(CN2CC3CC(CN(Cc4ccccc4)C3)C2)c1 [H CF3 H 0, N-Benzyl-N'-(3-trifluoromethylbenzyl)-bispidine fumarate]
MTD [1]: 100 mg/kg | ED50 [2]: 25.4 mg/kg | R.E. (relative effect, based on quinidine = 1.00) [2]: 1.68 | R.M.E. (relative maximum effectiveness, based on quinidine = 1.00) [2]: 1.82 | Maximum effect: Δ% (percentage by which the duration of the aconitine infusion can be increased) [2]: 242% | Toxic effect: Dose (dose producing a toxic effect) [3]: 215 mg/kg

Clc1ccc(CN2CC3CC(CN(Cc4ccccc4)C3)C2)cc1Cl [H Cl Cl 0, N-Benzyl-N'-(3,4-dichlorobenzyl)-bispidine fumarate]
MTD [1]: 215 mg/kg | ED50 [2]: 15.6 mg/kg | R.E. (relative effect, based on quinidine = 1.00) [2]: 2.74 | R.M.E. (relative maximum effectiveness, based on quinidine = 1.00) [2]: 2.13 | Maximum effect: Δ% (percentage by which the duration of the aconitine infusion can be increased) [2]: 283% | Toxic effect: Dose (dose producing a toxic effect) [3]: 464 mg/kg | selectivity ratio [3, 4]: 29.7

c1ccc(CN2CC3CC(C2)CN(CC(c2ccccc2)c2ccccc2)C3)cc1 [C6 H5 H H 1, N-benzyl-N'-2,2-diphenylethylbispidine fumarate x H2 O]
MTD [1]: 46.4 mg/kg | ED50 [2]: 13 mg/kg | R.E. (relative effect, based on quinidine = 1.00) [2]: 3.28 | R.M.E. (relative maximum effectiveness, based on quinidine = 1.00) [2]: 1.53 | Maximum effect: Δ% (percentage by which the duration of the aconitine infusion can be increased) [2]: 203% | Toxic effect: Dose (dose producing a toxic effect) [3]: 100 mg/kg | selectivity ratio [3, 4]: 7.7

Clc1cccc(CN2CC3CC(CN(Cc4ccccc4)C3)C2)c1 [H Cl H 0, N-benzyl-N'-(3-chlorobenzyl)-bispidine fumarate]
MTD [1]: 46.4 mg/kg | ED50 [2]: 16.6 mg/kg | R.E. (relative effect, based on quinidine = 1.00) [2]: 2.57 | R.M.E. (relative maximum effectiveness, based on quinidine = 1.00) [2]: 0.92 | Maximum effect: Δ% (percentage by which the duration of the aconitine infusion can be increased) [2]: 123% | Toxic effect: Dose (dose producing a toxic effect) [3]: 100 mg/kg | selectivity ratio [3, 4]: 6

c1ccc(CN2CC3CC(C2)CN(C(c2ccccc2)c2ccccc2)C3)cc1 [C6 H5 H H 0, N-Benzyl-N'-benzhydryl-bispidine fumarate]
MTD [1]: 215 mg/kg | ED50 [2]: 20.4 mg/kg | R.E. (relative effect, based on quinidine = 1.00) [2]: 2.09 | R.M.E. (relative maximum effectiveness, based on quinidine = 1.00) [2]: 1.54 | Maximum effect: Δ% (percentage by which the duration of the aconitine infusion can be increased) [2]: 205% | Toxic effect: Dose (dose producing a toxic effect) [3]: 464 mg/kg | selectivity ratio [3, 4]: 22.8

Fc1ccc(CN2CC3CC(CN(Cc4ccccc4)C3)C2)cc1 [H H F 0, N-Benzyl-N'-(4-fluorobenzyl)-bispidine fumarate]
MTD [1]: 100 mg/kg | ED50 [2]: 20.2 mg/kg | R.E. (relative effect, based on quinidine = 1.00) [2]: 2.11 | R.M.E. (relative maximum effectiveness, based on quinidine = 1.00) [2]: 1.80 | Maximum effect: Δ% (percentage by which the duration of the aconitine infusion can be increased) [2]: 240% | Toxic effect: Dose (dose producing a toxic effect) [3]: 215 mg/kg | selectivity ratio [3, 4]: 10.6

C=C[C@H]1C[N@@]2CC[C@H]1C[C@@H]2[C@@H](O)c1ccnc2ccc(OC)cc12 [Quinidine, reference compound]
MTD [1]: 215 mg/kg | ED50 [2]: 42.7 mg/kg | R.E. (relative effect, based on quinidine = 1.00) [2]: 1.00 | R.M.E. (relative maximum effectiveness, based on quinidine = 1.00) [2]: 1.00 | Maximum effect: Δ% (percentage by which the duration of the aconitine infusion can be increased) [2]: 133% | Toxic effect: Dose (dose producing a toxic effect) [3]: 464 mg/kg | selectivity ratio [3]: 10.9
